System: 377384-186-R-J1-PDC complex spheroid viability
Assay: Anticancer human tumor 377384-186-R-J1-PDC patient-derived pancreatic carcinoma cell line growth inhibition [RAS]
Details: for IC50: curve of first compound; for viability, T/C: stronger effect = lower value
In short: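 Tumour cells grown as complex spheroids with HUVEC endothelial cells and mesenchymal stem cells, treated with RAS pathway inhibitor combinations. Each agent spans half-log steps from near clinical Cmax, or 10 microM where Cmax is unknown.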

[1] = second compound 0.000949 µM, first compound 0.0316 µM
[2] = second compound 0.000949 µM, first compound 0.1 µM
[3] = second compound 0.000949 µM, first compound 0.316 µM
[4] = second compound 0.000949 µM, first compound 1 µM
[5] = second compound 0.003 µM, first compound 0.0316 µM
[6] = second compound 0.003 µM, first compound 0.1 µM
[7] = second compound 0.003 µM, first compound 0.316 µM
[8] = second compound 0.003 µM, first compound 1 µM
[9] = second compound 0.00949 µM, first compound 0.0316 µM
[10] = second compound 0.00949 µM, first compound 0.1 µM
[11] = second compound 0.00949 µM, first compound 0.316 µM
[12] = second compound 0.00949 µM, first compound 1 µM
[13] = second compound 0.03 µM, first compound 0.0316 µM
[14] = second compound 0.03 µM, first compound 0.1 µM
[15] = second compound 0.03 µM, first compound 0.316 µM
[16] = second compound 0.03 µM, first compound 1 µM
[17] = second compound 0.0949 µM, first compound 0.0316 µM
[18] = second compound 0.0949 µM, first compound 0.1 µM
[19] = second compound 0.0949 µM, first compound 0.316 µM
[20] = second compound 0.0949 µM, first compound 1 µM
[21] = second compound 0.3 µM, first compound 0.0316 µM
[22] = second compound 0.3 µM, first compound 0.1 µM
[23] = second compound 0.3 µM, first compound 0.316 µM
[24] = second compound 0.3 µM, first compound 1 µM
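Also: spheroids exposed to compounds for seven days before readout.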

Q: For CC(=O)OC12COC1CC(O)C1(C)C(=O)C(O)C3=C(C)C(OC(=O)C(O)C(NC(=O)OC(C)(C)C)c4ccccc4)CC(O)(C(OC(=O)c4ccccc4)C21)C3(C)C (centres undefined) + CCn1c(-c2cccnc2C(C)OC)c2c3cc(ccc31)N1CCOC(CC(NC(=O)C(C(C)C)N(C)C(=O)C3(F)CCN(C(=O)C#CC(C)(C)N(C)C)CC3)C(=O)N3CCCC(N3)C(=O)OCC(C)(C)C2)C1, which IC50 (second compound 0.000949 µM) is on record?
A: < 31.6 nM

Q: And the IC50 (second compound 0.003 µM)?
A: < 31.6 nM

Q: What about the IC50 (second compound 0.00949 µM) of the same compound?
A: < 31.6 nM

Q: What about the IC50 (second compound 0.03 µM) of the same compound?
A: < 31.6 nM

Q: What about the IC50 (second compound 0.0949 µM) of the same compound?
A: < 31.6 nM

Q: What about the IC50 (second compound 0.3 µM) of the same compound?
A: < 31.6 nM

Q: What about the viability, T/C [1] of the same compound?
A: 10.2%

Q: And the viability, T/C [2]?
A: 10.2%

Q: And the viability, T/C [3]?
A: 11%

Q: What about the viability, T/C [4] of the same compound?
A: 14.1%

Q: What about the viability, T/C (second compound 0.000949 µM, first compound 3.16 µM) of the same compound?
A: 14.5%

Q: What about the viability, T/C (second compound 0.000949 µM, first compound 10 µM) of the same compound?
A: 15.6%

Q: What about the viability, T/C [5] of the same compound?
A: 11.1%

Q: What about the viability, T/C [6] of the same compound?
A: 15.1%

Q: What about the viability, T/C [7] of the same compound?
A: 11%

Q: And the viability, T/C [8]?
A: 12.9%

Q: And the viability, T/C (second compound 0.003 µM, first compound 3.16 µM)?
A: 14.7%

Q: What about the viability, T/C (second compound 0.003 µM, first compound 10 µM) of the same compound?
A: 15.9%

Q: And the viability, T/C [9]?
A: 10.5%

Q: And the viability, T/C [10]?
A: 11.6%

Q: What about the viability, T/C [11] of the same compound?
A: 12.5%

Q: And the viability, T/C [12]?
A: 12%

Q: What about the viability, T/C (second compound 0.00949 µM, first compound 3.16 µM) of the same compound?
A: 13.7%

Q: What about the viability, T/C (second compound 0.00949 µM, first compound 10 µM) of the same compound?
A: 14.4%

Q: What about the viability, T/C [13] of the same compound?
A: 9.38%

Q: And the viability, T/C [14]?
A: 11.6%

Q: What about the viability, T/C [15] of the same compound?
A: 12.8%

Q: What about the viability, T/C [16] of the same compound?
A: 12.5%

Q: And the viability, T/C (second compound 0.03 µM, first compound 3.16 µM)?
A: 13.4%

Q: What about the viability, T/C (second compound 0.03 µM, first compound 10 µM) of the same compound?
A: 15.4%

Q: What about the viability, T/C [17] of the same compound?
A: 9.14%

Q: And the viability, T/C [18]?
A: 10.3%

Q: And the viability, T/C [19]?
A: 12.3%

Q: What about the viability, T/C [20] of the same compound?
A: 12.8%

Q: And the viability, T/C (second compound 0.0949 µM, first compound 3.16 µM)?
A: 13.1%

Q: And the viability, T/C (second compound 0.0949 µM, first compound 10 µM)?
A: 12.8%

Q: And the viability, T/C [21]?
A: 6.36%

Q: What about the viability, T/C [22] of the same compound?
A: 8.8%

Q: What about the viability, T/C [23] of the same compound?
A: 9.95%

Q: What about the viability, T/C [24] of the same compound?
A: 11.7%

Q: And the viability, T/C (second compound 0.3 µM, first compound 3.16 µM)?
A: 12.3%

Q: What about the viability, T/C (second compound 0.3 µM, first compound 10 µM) of the same compound?
A: 12%

Q: With Nc1ccn(C2OC(CO)C(O)C2(F)F)c(=O)n1 (centres undefined) + CCn1c(-c2cccnc2C(C)OC)c2c3cc(ccc31)N1CCOC(CC(NC(=O)C(C(C)C)N(C)C(=O)C3(F)CCN(C(=O)C#CC(C)(C)N(C)C)CC3)C(=O)N3CCCC(N3)C(=O)OCC(C)(C)C2)C1 as the compound, how does the IC50 (second compound 0.000949 µM) read?
A: 11.3 nM

Q: What about the IC50 (second compound 0.003 µM) of the same compound?
A: 9.69 nM

Q: What about the IC50 (second compound 0.00949 µM) of the same compound?
A: 12.6 nM

Q: What about the IC50 (second compound 0.03 µM) of the same compound?
A: 11.8 nM

Q: And the IC50 (second compound 0.0949 µM)?
A: 9.29 nM

Q: What about the IC50 (second compound 0.3 µM) of the same compound?
A: 7.06 nM

Q: What about the viability, T/C (second compound 0.000949 µM, first compound 0.00316 µM) of the same compound?
A: 87.1%

Q: And the viability, T/C (second compound 0.000949 µM, first compound 0.01 µM)?
A: 53.8%

Q: And the viability, T/C [1]?
A: 19.4%

Q: And the viability, T/C [2]?
A: 7.57%

Q: And the viability, T/C [3]?
A: 5.68%

Q: And the viability, T/C [4]?
A: 3.18%

Q: And the viability, T/C (second compound 0.003 µM, first compound 0.00316 µM)?
A: 94.7%

Q: And the viability, T/C (second compound 0.003 µM, first compound 0.01 µM)?
A: 48.4%

Q: And the viability, T/C [5]?
A: 23.4%

Q: And the viability, T/C [6]?
A: 9.1%

Q: What about the viability, T/C [7] of the same compound?
A: 4.5%

Q: And the viability, T/C [8]?
A: 3.68%

Q: What about the viability, T/C (second compound 0.00949 µM, first compound 0.00316 µM) of the same compound?
A: 96.1%

Q: What about the viability, T/C (second compound 0.00949 µM, first compound 0.01 µM) of the same compound?
A: 57.7%

Q: What about the viability, T/C [9] of the same compound?
A: 19.2%

Q: What about the viability, T/C [10] of the same compound?
A: 8.08%

Q: What about the viability, T/C [11] of the same compound?
A: 5.38%

Q: What about the viability, T/C [12] of the same compound?
A: 4.57%

Q: And the viability, T/C (second compound 0.03 µM, first compound 0.00316 µM)?
A: 90.9%

Q: What about the viability, T/C (second compound 0.03 µM, first compound 0.01 µM) of the same compound?
A: 55.3%

Q: And the viability, T/C [13]?
A: 17.6%

Q: What about the viability, T/C [14] of the same compound?
A: 5.8%

Q: What about the viability, T/C [15] of the same compound?
A: 5.88%

Q: And the viability, T/C [16]?
A: 3.65%

Q: And the viability, T/C (second compound 0.0949 µM, first compound 0.00316 µM)?
A: 79.1%

Q: What about the viability, T/C (second compound 0.0949 µM, first compound 0.01 µM) of the same compound?
A: 47.8%

Q: And the viability, T/C [17]?
A: 20.1%

Q: What about the viability, T/C [18] of the same compound?
A: 7.12%

Q: And the viability, T/C [19]?
A: 4.37%

Q: And the viability, T/C [20]?
A: 4.2%

Q: What about the viability, T/C (second compound 0.3 µM, first compound 0.00316 µM) of the same compound?
A: 71.9%

Q: And the viability, T/C (second compound 0.3 µM, first compound 0.01 µM)?
A: 40.6%

Q: What about the viability, T/C [21] of the same compound?
A: 13%

Q: What about the viability, T/C [22] of the same compound?
A: 5.77%

Q: What about the viability, T/C [23] of the same compound?
A: 4.01%

Q: What about the viability, T/C [24] of the same compound?
A: 3.34%
